Data on 56 compounds can be found in ChEMBL document CHEMBL1141069, “Impact of induced fit on ligand binding to the androgen receptor: a multidimensional QSAR study to predict endocrine-disrupting effects of environmental chemicals” (J Med Chem, 2005).

Structures are written as SMILES.

This assay has as its target T1, Androgen receptor (Rattus norvegicus, UniProt P15207).
T1 sequence (P15207 whole entry): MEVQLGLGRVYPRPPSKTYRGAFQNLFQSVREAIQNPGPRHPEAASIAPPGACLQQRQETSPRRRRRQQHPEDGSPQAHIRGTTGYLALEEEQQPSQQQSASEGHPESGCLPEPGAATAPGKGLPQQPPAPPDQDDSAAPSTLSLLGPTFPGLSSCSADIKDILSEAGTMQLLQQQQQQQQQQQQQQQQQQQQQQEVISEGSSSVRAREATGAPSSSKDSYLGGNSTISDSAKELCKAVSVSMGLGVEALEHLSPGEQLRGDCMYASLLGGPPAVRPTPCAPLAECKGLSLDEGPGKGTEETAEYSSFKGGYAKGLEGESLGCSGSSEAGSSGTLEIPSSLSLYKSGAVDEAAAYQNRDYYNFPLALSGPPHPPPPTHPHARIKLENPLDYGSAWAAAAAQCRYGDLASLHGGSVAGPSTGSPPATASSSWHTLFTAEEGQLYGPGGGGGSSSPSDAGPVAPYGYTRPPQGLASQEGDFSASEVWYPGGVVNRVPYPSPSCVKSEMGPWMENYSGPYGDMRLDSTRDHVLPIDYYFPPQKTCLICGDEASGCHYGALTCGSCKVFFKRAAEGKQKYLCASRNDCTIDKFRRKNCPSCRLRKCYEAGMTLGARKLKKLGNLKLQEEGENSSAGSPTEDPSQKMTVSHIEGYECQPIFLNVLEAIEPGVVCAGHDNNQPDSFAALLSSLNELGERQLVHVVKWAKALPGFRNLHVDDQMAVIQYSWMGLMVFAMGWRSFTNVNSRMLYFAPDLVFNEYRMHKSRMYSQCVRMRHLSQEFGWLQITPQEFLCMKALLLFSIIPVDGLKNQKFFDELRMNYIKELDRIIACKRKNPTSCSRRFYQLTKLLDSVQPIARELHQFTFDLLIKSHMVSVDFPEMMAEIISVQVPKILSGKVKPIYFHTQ
`Clc1ccc(-c2ccc(Cl)cc2Cl)c(Cl)c1` gave an IC50 of 17 µM.
For `C[C@]12CC[C@@H]3c4ccc(O)c(O)c4CC[C@H]3[C@@H]1CC[C@@H]2O` the value was 2.57 µM; for `CCC(c1ccc(O)c(O)c1)C(CC)c1ccc(O)c(O)c1` (stereo unspecified), 37.2 µM; for `Cc1ccc2c(c1)CC[C@@H]1[C@@H]2CC[C@]2(C)[C@@H](O)[C@@](C)(O)C[C@@H]12`, 37.2 µM.
For `Cc1ccc2c(c1)CC[C@@H]1[C@@H]2CC[C@]2(C)[C@@H](O)[C@H](O)C[C@@H]12` the value was 53.7 µM; for `c1ccc([C@H]2COC[C@H]2c2ccccc2)cc1`, 28.8 µM; for `CCCCCCCOc1ccc(O)cc1`, 14.8 µM.
With `CCCCCCCCCc1ccc(OCCOCCO)cc1` the figure was 18.2 µM.
The compound `O=C(c1ccccc1)c1ccc(O)cc1` gave an IC50 of 182 µM.
With `C[C@]12CC[C@@H](O)C[C@@H]1CC[C@@H]1[C@@H]2CC[C@]2(C)C(O)CC[C@@H]12` (stereo partly specified) the figure was 2 µM; with `C[C@]12CC[C@@H]3c4ccccc4CC[C@H]3[C@@H]1CC[C@@H]2O`, 0.0891 µM.
For `O=C(c1ccc(O)cc1)c1ccc(O)cc1` the value was 145 µM; for `COc1ccc(C(=C(Cl)Cl)c2ccc(OC)cc2)cc1`, 49 µM; for `COc1ccc(C(=C(Cl)Cl)c2ccc(O)cc2)cc1`, 20.4 µM.
With `O=C1CC(c2ccccc2)Oc2ccc(O)cc21` (stereo unspecified) the figure was 18.6 µM; with `Clc1ccc(-c2ccccc2Cl)cc1`, 16.2 µM; with `Cl/C=C(\c1ccc(Cl)cc1)c1ccccc1Cl`, 10.5 µM.
`CCC(c1ccc(O)cc1)C(CC)c1ccc(OC)cc1` (stereo unspecified) gave an IC50 of 12.9 µM.
With `CC/C(=C(\c1ccc(O)cc1)c1ccc(OCCN(C)C)cc1)c1ccccc1` the figure was 9.33 µM; with `C[C@@]12CCC[C@H]1[C@@H]1CCc3cc(O)ccc3[C@H]1CC2`, 41.7 µM; with `O=C1C[C@@H]2C(=O)CC[C@H]2[C@@H]2CC[C@H]3CCCC[C@@H]3[C@@H]12`, 0.0891 µM.
Compound `Oc1ccc(-c2cc(Cl)c(Cl)c(Cl)c2Cl)cc1` showed an IC50 of 16.2 µM.
`C[C@]12CCCC[C@@H]1CC[C@@H]1[C@@H]2CC[C@]2(C)[C@@H](O)CC[C@@H]12` gave an IC50 of 0.011 µM.
With `C[C@]12CC[C@@H]3c4cc(O)c(O)cc4CC[C@H]3[C@@H]1CC[C@@H]2O` the figure was 8.51 µM; with `Oc1c(Cl)cc(-c2cc(Cl)c(O)c(Cl)c2)cc1Cl`, 38 µM.
`CC1CC2=CC(=O)CC[C@@H]2[C@H]2CC[C@@]3(C)[C@@H](CC[C@]3(C)O)[C@H]12` (single isomer, unassigned) [MIBOLERONE] had an IC50 of 0.00166 µM.
`C[C@H]1CCCC(=O)CCCCCc2cc(O)cc(O)c2C(=O)O1` (stereo in doubt; form 1) [ZEARALANONE] had an IC50 of 42.7 µM.
With `C[C@H]1CCCC(=O)CCCCCc2cc(O)cc(O)c2C(=O)O1` (stereo in doubt; form 2) [ZEARALANONE] the figure was 10 µM; with `O=C(O)COc1cc(Cl)c(Cl)cc1Cl` [2,4,5-TRICHLOROPHENOXYACETIC ACID], 457 µM.
With `O=C1CC(c2ccc(O)cc2)Oc2ccccc21` (stereo unspecified) [4'-HYDROXY-FLAVANONE] the figure was 57.5 µM; with `O=C(/C=C/c1ccccc1)c1ccc(O)cc1` [4'-HYDROXYCHALCONE], 57.5 µM; with `O=C(/C=C/c1ccc(O)cc1)c1ccccc1` [4-HYDROXYCHALCONE], 47.9 µM.
With `O=c1cc(-c2ccccc2)oc2ccc(O)cc12` [6-HYDROXYFLAVONE] the figure was 182 µM; with `O=c1cc(-c2ccccc2)oc2cc(O)ccc12` [7-HYDROXYFLAVONE], greater than 42.7 µM; with `Oc1ccc(/C=C/c2ccccc2)cc1` [(E)-4-STYRYLPHENOL], 41.7 µM.
For the compound `C[C@]12CCC(=O)C=C1CC[C@@H]1[C@@H]2[C@@H](O)C[C@]2(C=O)[C@@H](C(=O)CO)CC[C@@H]12` [ALDOSTERONE], the IC50 is greater than 42.7 µM.
With `Oc1ccc([C@H]2COc3cc(O)ccc3C2)cc1` [AUS-131] the figure was 74.1 µM; with `O=C(c1ccccc1)c1ccccc1` [BENZOPHENONE], 129 µM.
For `CC(C)(c1ccc(O)cc1)c1ccc(O)cc1` [BISPHENOL A] the value was 74.1 µM.
For `O=C(/C=C/c1ccccc1)c1ccccc1` [CHALCONE] the value was 64.6 µM; for `ClC1=C(Cl)C2(Cl)C3C(Cl)C(Cl)CC3C1(Cl)C2(Cl)Cl` (stereo unspecified) [CHLORDANE], 10 µM; for `CCN(CC)CCOc1ccc(/C(=C(\Cl)c2ccccc2)c2ccccc2)cc1` [CLOMIPHENE], 13.5 µM.
As to `C[C@]12CC[C@H]3[C@@H](CCC4(OC(=O)c5ccccc5)CC(=O)CC[C@]34C)[C@@H]1CC[C@@H]2O` (stereo partly specified) [DHT BENZOATE], the midpoint of inhibition, the IC50, lay at 0.257 µM.
`COc1cc(C(=C(Cl)Cl)c2ccc(O)cc2)ccc1O` [DIHYDROXYMETHOXYCHLOROLEFIN] gave an IC50 of 6.31 µM.
Turning to `C/C(=C(/C)c1ccc(O)cc1)c1ccc(O)cc1` [DIMETHYLSTILBESTROL], the IC50 is 14.1 µM.
With `O=S1OCC2C(CO1)C1(Cl)C(Cl)=C(Cl)C2(Cl)C1(Cl)Cl` (stereo unspecified) [ENDOSULFAN], the IC50 is 23.4 µM.
For `O=C1CC(c2ccccc2)Oc2ccccc21` (stereo unspecified) [FLAVANONE] the value was 55 µM.
With `O=c1cc(-c2ccccc2)oc2ccccc12` [FLAVONE] the figure was 77.6 µM; with `O=c1c(-c2ccc(O)cc2)coc2cc(O)cc(O)c12` [GENISTEIN], 85.1 µM; with `C[C@]12CCC(=O)C=C1CC[C@@H]1[C@@H]2[C@@H](O)C[C@@]2(C)[C@H]1CC[C@]2(O)C(=O)CO` [HYDROCORTISONE], 182 µM.
For `Oc1ccc(OCc2ccccc2)cc1` [MONOBENZONE] the value was 234 µM; for `COc1ccc2c(c1)CCC(c1ccccc1)=C2c1ccc(OCCN2CCCC2)cc1` [NAFOXIDINE], 12.9 µM.
`ClC(Cl)=C(c1ccc(Cl)cc1)c1ccccc1Cl` [O,P'-DDE (1,1-(O,P'-DICHLORODIPHENYL)-2,2 DICHLOROETHENE)] had a 50% inhibitory concentration (IC50) of 20.4 µM.
For `Oc1ccc(/C=C/c2ccc(O)cc2)cc1` [TRANS-4,4'-DIHYDROXYSTILBENE], the IC50 was 83.2 µM.
With `C[C@]12C=CC3=C4CCC(=O)C=C4CCC3C1CC[C@@H]2O` (stereo partly specified) [TRENBOLONE] the figure was 0.00263 µM; with `COc1cc(C=O)ccc1O` [VANILLIN], greater than 427 µM.

In general, IC50 refers to the point on the concentration scale where inhibition reaches its midpoint. Lower therefore signals higher potency.
